# Data as given in ChEMBL document CHEMBL1201862, “PubChem BioAssay data set” (2004).
# Calls of active or inactive are those of the source.
# What was measured:
# [1] = inhibitors of Ran–importin-beta complex, dose response, biochemical, plate reader, dry powder (AID 493048); design: species or system Homo sapiens
# [2] = biological target: Mothers against decapentaplegic homolog 3 (Homo sapiens, UniProt P84022); experiment: Smad3 binding inhibitors, lysate ELISA, dose response, cell lysate, secondary confirmation, chemiluminescent ELISA, HEK293 lysate (AID 1058); type: functional
# [3] = biological target: T1, Short transient receptor potential channel 4 (Mus musculus, UniProt Q9QUQ5); experiment: TRPC4 positive allosteric modulators, dose response, cell-based, HEK293 TRPC4/mu-opioid, Fluo-4 calcium, EC20 DAMGO (AID 434941); type: functional
# T1 sequence (Q9QUQ5 whole entry): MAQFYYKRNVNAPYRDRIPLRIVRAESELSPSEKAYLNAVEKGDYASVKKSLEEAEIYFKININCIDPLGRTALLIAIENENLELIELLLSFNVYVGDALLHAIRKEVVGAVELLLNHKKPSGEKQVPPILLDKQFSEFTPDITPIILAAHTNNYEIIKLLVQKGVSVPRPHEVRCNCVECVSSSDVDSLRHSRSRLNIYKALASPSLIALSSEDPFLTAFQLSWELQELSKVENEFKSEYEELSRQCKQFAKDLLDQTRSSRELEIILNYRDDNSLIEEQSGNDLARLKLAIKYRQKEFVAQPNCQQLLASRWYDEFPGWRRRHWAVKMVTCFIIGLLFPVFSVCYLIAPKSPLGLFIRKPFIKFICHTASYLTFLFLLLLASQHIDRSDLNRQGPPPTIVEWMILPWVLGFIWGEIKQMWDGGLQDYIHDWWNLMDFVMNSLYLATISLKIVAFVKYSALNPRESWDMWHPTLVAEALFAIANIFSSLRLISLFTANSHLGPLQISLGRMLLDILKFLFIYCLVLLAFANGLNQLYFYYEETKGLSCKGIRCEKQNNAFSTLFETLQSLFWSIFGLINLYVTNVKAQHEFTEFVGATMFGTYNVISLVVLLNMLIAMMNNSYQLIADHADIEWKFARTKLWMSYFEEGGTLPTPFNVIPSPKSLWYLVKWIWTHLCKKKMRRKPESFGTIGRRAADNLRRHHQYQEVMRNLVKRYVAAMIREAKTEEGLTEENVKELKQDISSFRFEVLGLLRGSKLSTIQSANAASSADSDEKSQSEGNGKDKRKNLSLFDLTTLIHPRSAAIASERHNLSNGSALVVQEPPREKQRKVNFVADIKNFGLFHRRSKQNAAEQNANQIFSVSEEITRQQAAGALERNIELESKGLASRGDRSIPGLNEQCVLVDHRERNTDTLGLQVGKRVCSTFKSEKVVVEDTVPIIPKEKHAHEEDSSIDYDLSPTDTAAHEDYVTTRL
# [4] = Luminescence Cell-Based Dose-Confimation HTS to Identify Inhibitors of 5'UTR Stem-Loop Driven Alpha-Synuclein mRNA Translation in H4 Neuroglioblastoma Cells. [Related pubchem assays: 1827 (Project Summary), 1813 (Primary HTS)]; type: functional
# Trypsin = Trypsin (Sus scrofa, UniProt P00761); experiment: porcine trypsin inhibitors, dose response, selectivity assay for Rce1 protease inhibitor project, biochemical, quenched peptide fluorescence, cherry-pick (AID 488789)
# [5] = biological target: Peroxisome proliferator-activated receptor gamma/Nuclear receptor coactivator 3 (Homo sapiens, UniProt P37231); type: functional;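 also: agonist potency for raising coactivator recruitment to the receptor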
# [6] = biological target: Peroxisome proliferator-activated receptor gamma/Nuclear receptor coactivator 2 (Homo sapiens, UniProt P37231); type: functional;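 also: agonist potency for raising coactivator recruitment to the receptor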
# [7] = biological target: Peroxisome proliferator-activated receptor gamma/Nuclear receptor coactivator 1 (Homo sapiens, UniProt P37231); type: functional;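 also: agonist potency as compounds enhance coactivator SRC-1 recruitment to PPARgamma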
# [8] = biological target: T2, Heat shock 70 kDa protein 1A (Homo sapiens, UniProt P0DMV8); experiment: Hsp70 inhibitors, biochemical, TR-FRET (AID 786)
# [9] = biological target: T2, Heat shock 70 kDa protein 1A; experiment: Hsp70 inhibitors, probe displacement, primary screen, biochemical, fluorescence polarization (AID 583)
# [10] = biological target: T3, Eukaryotic translation initiation factor 2-alpha kinase 3 (Homo sapiens, UniProt Q9NZJ5); experiment: Dose response cell-based high-throughput screening assay to measure PERK inhibition. [Related pubchem assays: 1416 ]; type: functional
# [11] = biological target: T3, Eukaryotic translation initiation factor 2-alpha kinase 3; experiment: Counterscreen assay for PERK inhibitors: Dose response cell-based high throughput screening assay to measure inhibition of PERK at 6 hours. [Related pubchem assays: 1522, 1416 ]; type: functional
# Leucine aminopeptidase = Leucine aminopeptidase (Plasmodium falciparum 3D7, UniProt Q8IL11); experiment: P. falciparum M17LAP inhibitors, primary screen, biochemical, fluorogenic H-Leu-NHMec substrate, 1536-well (AID 1619); type: functional
# [12] = A cytotoxicity screen of small molecule inhibitors of the PhoP region in Salmonella typhi identified in the primary screen. [Related pubchem assays: 1850, 1864, 1985 ]; type: functional
# [13] = biological target: C-C chemokine receptor type 6 (Homo sapiens, UniProt P51684); experiment: CCR6 receptor antagonists, dose response, cell-based, luminescent beta-arrestin readout (AID 504728); type: functional
# NS3 = NS3 (Hepatitis C virus, UniProt A3EZJ3); experiment: PubChem AID 2173; design: species or system Hepacivirus hominis
# Beta-galactosidase = Beta-galactosidase (Escherichia coli, UniProt Q8VNN2); experiment: beta-galactosidase enzyme inhibitors and activators, dose response, artefact control for CCR6 antagonist project, biochemical, E. coli enzyme, set 3 (AID 504712); type: functional
# Neutrophil collagenase = Neutrophil collagenase (Homo sapiens, UniProt P22894); experiment: MMP13 inhibition and MMP selectivity, late-stage follow-up, selectivity assay for MMP13 inhibitor project, biochemical, probe development, late stage results, panel member MMP-8 [IC50 Assay] (AID 2067)
# Protein Rev = Protein Rev (Human immunodeficiency virus type 1 group M subtype B (isolate WMJ22)(HIV-1), UniProt P05866); experiment: HIV-1 Rev-RRE RNA binding disruptors, dose response, biochemical, protein-RNA interaction (AID 842); design: species or system Human immunodeficiency virus 1
# HEK293 = experiment: Fluorescence-based counterscreen for potentiators or agonists of NPY-Y2: cell-based high-throughput dose response assay to identify inhibitors of cyclic nucleotide gated ion channel (CNGC) activity. In this assay, the parental HEK293 cell line transfected with a cyclic-nucleotide gated ion channel (CNGC)-based cAMP sensor is used to measure inhibition of isoproterenol-induced CNGC activity by test compound.; type: functional; settings: Homo sapiens;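 also: stimulus is 1 µM isoproterenol at EC100 plus PDE inhibitor Ro 20-1724 at 25 µM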
# [14] = biological target: T4, Neuropeptide Y receptor type 1 (Homo sapiens, UniProt P25929); experiment: Fluorescence-based counterscreen for agonists of NPY-Y2: cell-based high-throughput dose response assay for agonists of NPY-Y1.; type: functional
# T4 sequence (P25929 whole entry): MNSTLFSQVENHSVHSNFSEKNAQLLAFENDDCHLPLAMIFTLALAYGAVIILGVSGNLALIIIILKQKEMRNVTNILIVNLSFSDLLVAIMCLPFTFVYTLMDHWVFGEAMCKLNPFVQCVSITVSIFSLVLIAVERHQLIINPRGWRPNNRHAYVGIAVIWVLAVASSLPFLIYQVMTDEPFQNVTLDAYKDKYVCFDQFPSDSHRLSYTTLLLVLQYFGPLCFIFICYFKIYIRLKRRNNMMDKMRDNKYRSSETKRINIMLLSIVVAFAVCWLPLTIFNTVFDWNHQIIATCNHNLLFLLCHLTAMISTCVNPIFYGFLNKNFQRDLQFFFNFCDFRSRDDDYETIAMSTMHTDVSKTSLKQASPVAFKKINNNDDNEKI
# [15] = biological target: T5, Neuropeptide Y receptor type 2 (Homo sapiens, UniProt P49146); experiment: Fluorescence-based cell-based high-throughput dose response assay for agonists of NPY-Y2. [Related pubchem assays: 1703 (Screening assay (CNGC inhibitors).), 1359 (Screening assay (NPY-Y2 potentiators or agonists).), 1304 (Screening assay (NPY-Y1 potentiators or agonists).), 1710 (Screening assay (NPY-Y2 agonists).), 1791 (Summary AID.)]; type: functional
# T5 sequence (P49146 whole entry): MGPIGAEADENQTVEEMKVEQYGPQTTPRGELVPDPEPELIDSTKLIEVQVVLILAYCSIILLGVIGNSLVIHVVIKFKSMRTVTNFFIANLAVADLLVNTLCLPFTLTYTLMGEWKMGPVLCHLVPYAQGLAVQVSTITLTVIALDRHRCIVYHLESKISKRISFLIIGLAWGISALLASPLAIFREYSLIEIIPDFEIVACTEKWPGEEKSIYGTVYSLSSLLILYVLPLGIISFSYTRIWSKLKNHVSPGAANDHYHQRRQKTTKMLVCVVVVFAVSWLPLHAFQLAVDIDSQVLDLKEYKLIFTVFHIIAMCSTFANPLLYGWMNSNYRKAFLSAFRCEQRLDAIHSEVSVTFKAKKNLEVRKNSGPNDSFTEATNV
# [16] = biological target: Lysosomal acid glucosylceramidase (Homo sapiens, UniProt P04062); experiment: Dose response cell-based high throughput screening assay to identify enhancers of beta-glucosidase activity. [Related pubchem assays: 784 ]; type: functional
# [17] = inhibitors of SNCA 5'UTR-driven reporter translation, confirmation, H4 neuroglioma cells, luminescence (AID 1988); type: functional, cell-based
# [18] = biological target: T6, Ubiquitin-conjugating enzyme E2 N (Homo sapiens, UniProt P61088); type: functional;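 also: Dose-response confirmation in a TR-FRET assay detecting UBC13-driven polyubiquitin chain formation, inhibition measured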
# T6 sequence (P61088 whole entry): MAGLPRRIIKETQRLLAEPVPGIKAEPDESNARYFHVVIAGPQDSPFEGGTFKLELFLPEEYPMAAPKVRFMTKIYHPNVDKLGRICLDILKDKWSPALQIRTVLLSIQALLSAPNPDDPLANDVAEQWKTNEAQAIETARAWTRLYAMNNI
# [19] = biological target: G-protein coupled receptor 35 (Homo sapiens, UniProt Q9HC97); experiment: GPR35 antagonists blocking zaprinast-driven arrestin recruitment, primary screen, imaging, U2OS, beta-arrestin-GFP, zaprinast agonist (AID 2058); type: functional;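 also: antagonist potency meaning inhibition of agonist-induced arrestin redistribution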
# [20] = inhibitors of intracellular T. cruzi replication, confirmation, NIH3T3 host cells, beta-gal luminescence (AID 2044); type: functional, cell-based;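 also: intracellular parasites grown in NIH/3T3 mouse fibroblasts as host cells; luminescent beta-galactosidase reporter signal from transgenic T. cruzi replicating inside host cells; inhibitors lower the luminescence signal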
# [21] = inhibitors of firefly luciferase expression or activity, dose response, H4 neuroglioma cells, luminescence (AID 1990); type: functional, cell-based
# [22] = cytotoxicity toward NIH3T3 fibroblasts, dose response, counter-screen, cell-based, ATP luminescence, mouse fibroblasts (AID 2010); type: functional;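 also: cells exposed to compound for about 90 hours before reading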
# [23] = Luminescence Cell-Based Dose Response HTS to Identify Inhibitors of 5'UTR Stem-Loop Driven Prion Protein mRNA Translation in H4 Neuroglioblastoma Cells. [Related pubchem assays: 1827 (Project Summary), 1813 (Primary HTS)]; type: functional
# [24] = biological target: Acyl-homoserine lactone acylase PvdQ (Pseudomonas aeruginosa (strain LESB58), UniProt Q9I194); experiment: P. aeruginosa PvdQ acylase inhibitors, dose response, biochemical, fluorescence, plate reader and imaging, cherry-picks (AID 493231)
# [25] = biological target: Scavenger receptor class B member 1 (Mus musculus, UniProt Q61009); experiment: inhibitors of SR-BI mediated HDL lipid uptake, dose response, ldlA[mSR-BI] cells, fluorescence, cherry pick (AID 493194); type: functional, cell-based;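 also: cellular uptake of fluorescent DiI-labeled HDL measured as cell fluorescence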
# T2 sequence (P0DMV8 whole entry): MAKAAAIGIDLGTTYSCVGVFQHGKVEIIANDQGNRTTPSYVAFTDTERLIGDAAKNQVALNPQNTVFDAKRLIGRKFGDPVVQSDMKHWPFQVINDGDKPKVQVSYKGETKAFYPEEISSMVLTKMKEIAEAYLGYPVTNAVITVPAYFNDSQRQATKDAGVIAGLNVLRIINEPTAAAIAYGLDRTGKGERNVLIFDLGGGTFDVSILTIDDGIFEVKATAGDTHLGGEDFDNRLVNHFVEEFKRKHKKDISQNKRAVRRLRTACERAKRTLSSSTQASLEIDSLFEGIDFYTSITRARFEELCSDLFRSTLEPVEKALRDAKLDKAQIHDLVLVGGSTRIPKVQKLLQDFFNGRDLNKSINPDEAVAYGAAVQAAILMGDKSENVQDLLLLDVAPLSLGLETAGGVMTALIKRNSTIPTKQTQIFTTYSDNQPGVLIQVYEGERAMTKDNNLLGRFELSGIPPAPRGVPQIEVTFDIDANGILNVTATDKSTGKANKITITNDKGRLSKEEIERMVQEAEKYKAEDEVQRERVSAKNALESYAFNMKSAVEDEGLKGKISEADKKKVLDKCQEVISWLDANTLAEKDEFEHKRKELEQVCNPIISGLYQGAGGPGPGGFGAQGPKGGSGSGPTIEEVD
# T3 sequence (Q9NZJ5 whole entry): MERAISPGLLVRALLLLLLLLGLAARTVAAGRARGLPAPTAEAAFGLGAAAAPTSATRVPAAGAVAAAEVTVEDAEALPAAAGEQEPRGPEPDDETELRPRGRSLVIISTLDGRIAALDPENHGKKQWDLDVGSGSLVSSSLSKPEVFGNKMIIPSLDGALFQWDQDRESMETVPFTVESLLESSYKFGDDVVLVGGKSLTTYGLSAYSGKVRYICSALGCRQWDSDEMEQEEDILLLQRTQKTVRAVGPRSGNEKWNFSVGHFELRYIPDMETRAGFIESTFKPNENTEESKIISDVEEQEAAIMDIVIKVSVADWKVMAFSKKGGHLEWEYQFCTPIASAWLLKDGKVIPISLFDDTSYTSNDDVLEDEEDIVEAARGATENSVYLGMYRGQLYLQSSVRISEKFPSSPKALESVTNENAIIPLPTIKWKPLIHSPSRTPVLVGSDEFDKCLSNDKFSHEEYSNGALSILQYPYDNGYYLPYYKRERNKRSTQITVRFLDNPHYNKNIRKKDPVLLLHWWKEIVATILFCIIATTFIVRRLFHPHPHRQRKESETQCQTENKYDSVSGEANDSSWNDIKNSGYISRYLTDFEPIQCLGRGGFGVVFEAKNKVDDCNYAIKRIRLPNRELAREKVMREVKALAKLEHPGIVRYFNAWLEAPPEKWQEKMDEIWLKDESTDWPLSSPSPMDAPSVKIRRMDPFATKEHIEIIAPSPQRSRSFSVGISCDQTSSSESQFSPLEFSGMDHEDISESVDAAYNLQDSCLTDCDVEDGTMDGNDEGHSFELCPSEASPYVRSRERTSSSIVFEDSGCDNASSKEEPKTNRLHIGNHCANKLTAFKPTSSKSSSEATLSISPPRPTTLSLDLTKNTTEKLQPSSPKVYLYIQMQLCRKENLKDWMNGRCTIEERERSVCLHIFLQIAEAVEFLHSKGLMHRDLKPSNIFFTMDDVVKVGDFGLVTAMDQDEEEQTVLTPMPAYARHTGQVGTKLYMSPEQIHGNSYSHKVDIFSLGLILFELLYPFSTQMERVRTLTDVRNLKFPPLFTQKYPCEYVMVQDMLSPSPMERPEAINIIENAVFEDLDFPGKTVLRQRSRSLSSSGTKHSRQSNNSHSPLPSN
# Chain of Leucine aminopeptidase (Q8IL11 whole entry): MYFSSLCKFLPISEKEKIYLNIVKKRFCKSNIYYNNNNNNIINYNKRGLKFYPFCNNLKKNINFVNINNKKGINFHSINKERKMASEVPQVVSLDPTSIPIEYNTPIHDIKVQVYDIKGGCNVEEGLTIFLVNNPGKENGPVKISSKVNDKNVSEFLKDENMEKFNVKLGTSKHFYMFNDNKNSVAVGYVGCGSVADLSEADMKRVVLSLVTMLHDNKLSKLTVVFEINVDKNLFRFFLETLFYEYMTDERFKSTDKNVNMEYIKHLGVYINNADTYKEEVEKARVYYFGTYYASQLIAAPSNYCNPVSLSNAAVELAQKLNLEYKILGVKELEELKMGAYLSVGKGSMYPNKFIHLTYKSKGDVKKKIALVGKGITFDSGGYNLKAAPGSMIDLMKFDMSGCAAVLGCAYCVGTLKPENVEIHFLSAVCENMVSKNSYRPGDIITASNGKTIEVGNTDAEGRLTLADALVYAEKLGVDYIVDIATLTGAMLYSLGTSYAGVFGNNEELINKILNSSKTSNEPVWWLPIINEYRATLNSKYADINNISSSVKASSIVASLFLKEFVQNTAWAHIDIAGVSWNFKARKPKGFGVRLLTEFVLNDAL
# Chain of Peroxisome proliferator-activated receptor gamma/Nuclear receptor coactivator 3 (P37231 whole entry): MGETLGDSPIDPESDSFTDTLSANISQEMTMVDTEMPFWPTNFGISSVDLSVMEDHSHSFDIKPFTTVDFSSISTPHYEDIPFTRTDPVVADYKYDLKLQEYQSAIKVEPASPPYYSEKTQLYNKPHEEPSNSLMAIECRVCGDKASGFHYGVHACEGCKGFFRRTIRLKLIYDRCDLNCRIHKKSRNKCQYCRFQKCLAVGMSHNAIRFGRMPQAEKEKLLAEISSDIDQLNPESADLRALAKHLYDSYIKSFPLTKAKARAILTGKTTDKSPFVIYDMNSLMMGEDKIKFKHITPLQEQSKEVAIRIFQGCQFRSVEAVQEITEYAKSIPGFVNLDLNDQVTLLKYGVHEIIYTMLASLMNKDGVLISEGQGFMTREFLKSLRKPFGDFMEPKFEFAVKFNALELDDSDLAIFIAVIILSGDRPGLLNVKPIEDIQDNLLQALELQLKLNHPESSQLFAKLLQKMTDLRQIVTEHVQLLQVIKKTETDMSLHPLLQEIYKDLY
# Chain of Peroxisome proliferator-activated receptor gamma/Nuclear receptor coactivator 3 (Q9Y6Q9 whole entry, further chain): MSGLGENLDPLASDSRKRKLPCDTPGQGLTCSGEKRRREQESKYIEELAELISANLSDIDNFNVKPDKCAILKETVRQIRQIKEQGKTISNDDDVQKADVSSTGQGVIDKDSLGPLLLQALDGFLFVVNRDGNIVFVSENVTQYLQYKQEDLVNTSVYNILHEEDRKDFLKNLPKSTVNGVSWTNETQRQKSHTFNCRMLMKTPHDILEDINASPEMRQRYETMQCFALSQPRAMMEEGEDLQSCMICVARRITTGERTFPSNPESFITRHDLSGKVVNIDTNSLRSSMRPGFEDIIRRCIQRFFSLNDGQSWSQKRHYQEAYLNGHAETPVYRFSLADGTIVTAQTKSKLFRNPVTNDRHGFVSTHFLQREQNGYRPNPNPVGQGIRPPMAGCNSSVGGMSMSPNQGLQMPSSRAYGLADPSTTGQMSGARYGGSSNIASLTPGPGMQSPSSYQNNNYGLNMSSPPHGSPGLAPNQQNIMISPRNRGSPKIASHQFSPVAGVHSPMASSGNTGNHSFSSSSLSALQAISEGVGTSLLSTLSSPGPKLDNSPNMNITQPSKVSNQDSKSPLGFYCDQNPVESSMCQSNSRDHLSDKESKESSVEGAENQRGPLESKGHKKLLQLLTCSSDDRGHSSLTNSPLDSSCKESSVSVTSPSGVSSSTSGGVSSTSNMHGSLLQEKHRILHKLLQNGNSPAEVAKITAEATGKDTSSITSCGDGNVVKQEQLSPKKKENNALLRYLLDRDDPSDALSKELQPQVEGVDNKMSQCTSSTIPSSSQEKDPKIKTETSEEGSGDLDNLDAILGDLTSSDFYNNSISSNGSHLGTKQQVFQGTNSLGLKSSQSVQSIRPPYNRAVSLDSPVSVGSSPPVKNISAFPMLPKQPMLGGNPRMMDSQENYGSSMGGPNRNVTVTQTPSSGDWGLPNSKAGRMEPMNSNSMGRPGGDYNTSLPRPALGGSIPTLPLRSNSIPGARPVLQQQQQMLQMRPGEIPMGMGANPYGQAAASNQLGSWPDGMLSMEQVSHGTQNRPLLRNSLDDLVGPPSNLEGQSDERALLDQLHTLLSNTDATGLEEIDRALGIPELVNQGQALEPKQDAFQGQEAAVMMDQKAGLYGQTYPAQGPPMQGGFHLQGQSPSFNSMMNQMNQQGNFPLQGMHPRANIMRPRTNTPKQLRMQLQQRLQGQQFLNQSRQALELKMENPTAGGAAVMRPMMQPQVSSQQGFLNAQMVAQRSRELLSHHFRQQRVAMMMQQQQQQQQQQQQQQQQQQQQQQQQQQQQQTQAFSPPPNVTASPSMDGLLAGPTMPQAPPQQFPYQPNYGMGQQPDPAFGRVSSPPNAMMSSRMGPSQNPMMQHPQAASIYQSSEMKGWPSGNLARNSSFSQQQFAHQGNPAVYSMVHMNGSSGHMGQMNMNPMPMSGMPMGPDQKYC
# Chain of Protein Rev (P05866 whole entry): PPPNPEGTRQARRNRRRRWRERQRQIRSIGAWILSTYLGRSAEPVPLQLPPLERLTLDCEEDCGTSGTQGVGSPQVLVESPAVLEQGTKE
# Chain of NS3 (A3EZJ3 whole entry): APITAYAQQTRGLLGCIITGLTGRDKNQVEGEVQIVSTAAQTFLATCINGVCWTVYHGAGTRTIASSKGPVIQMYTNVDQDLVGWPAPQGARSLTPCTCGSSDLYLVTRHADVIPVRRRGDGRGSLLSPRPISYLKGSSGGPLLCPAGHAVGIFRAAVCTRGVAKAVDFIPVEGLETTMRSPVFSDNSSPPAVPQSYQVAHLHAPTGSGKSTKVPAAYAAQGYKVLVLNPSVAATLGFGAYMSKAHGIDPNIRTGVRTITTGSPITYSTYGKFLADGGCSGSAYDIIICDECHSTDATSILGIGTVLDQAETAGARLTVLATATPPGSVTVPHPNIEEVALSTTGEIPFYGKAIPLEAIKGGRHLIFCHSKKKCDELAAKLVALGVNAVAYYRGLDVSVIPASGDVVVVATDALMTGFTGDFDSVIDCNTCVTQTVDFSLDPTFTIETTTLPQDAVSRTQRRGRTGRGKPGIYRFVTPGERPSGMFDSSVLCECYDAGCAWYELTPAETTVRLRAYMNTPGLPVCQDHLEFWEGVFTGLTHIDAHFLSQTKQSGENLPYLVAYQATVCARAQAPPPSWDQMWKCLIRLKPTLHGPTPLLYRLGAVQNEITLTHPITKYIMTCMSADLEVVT
smiles,measurement,setting,value
COCCNC(=O)/C(C#N)=C/c1cn(CC(=O)NCc2ccco2)c2ccccc12,AC50,[1],174 µM (active)
COc1cc(C(c2cc3c(cc2O)OCO3)N2CCOCC2)cc(OC)c1OC (stereo not drawn),IC50,[2],9.66 µM (not active)
O=C(NCc1ccccc1)C1=C[C@H](c2ccc(C(F)(F)F)cc2)C[C@H](OCc2ccc(CO)cc2)O1,EC50,[3],5.96 µM (active)
Cc1cccc(C)c1-n1nnnc1SCc1nc(N)nc(N(C)C)n1,EC50,[4],8.3 µM (active)
COCc1c(Br)c(C)nc(O)c1C#N,AC50,Trypsin,72.8 µM (active)
O=C(CSc1ccc2nnc(-c3ccccn3)n2n1)NCc1ccc2c(c1)OCO2,EC50,[5],> 79.4 µM (not active)
same,EC50,[6],> 79.4 µM (not active)
same,EC50,[7],> 79.4 µM (not active)
COCCCNC(=O)CC(NS(=O)(=O)c1ccc(C)cc1)c1ccco1 (stereo not drawn),IC50,[8],> 100 µM (not active)
same,IC50,[9],> 100 µM (not active)
CCSc1nnc(NC(=O)c2cc(-c3ccccc3O)[nH]n2)s1,EC50,[10],> 55.7 µM (not active)
same,EC50,[11],> 55.7 µM (not active)
COc1ccc(NC(=O)Nc2ccc(C(=O)N3CCOCC3)cc2)cc1,IC50,Leucine aminopeptidase,31.6 µM (active)
CC(C)(C)n1nc2c(c1NC(=O)c1ccccc1)CS(=O)(=O)C2,EC50,[12],> 50 µM (active)
Cc1ccc(C(CCN(Cc2ccccc2)C(=O)c2ccco2)c2ccco2)cc1 (stereo not drawn),IC50,[13],> 66.6 µM (inactive)
same,IC50,NS3,8.82 µM (active)
same,IC50,Beta-galactosidase,> 66.6 µM (inactive)
COC(=O)c1ccc(CSc2nc3c(c(=O)[nH]2)CCC3)cc1,IC50,Neutrophil collagenase,> 39.8 µM (inactive)
O=C(CN1C2=NCCN2c2ccccc21)c1ccc(Br)cc1,IC50,Protein Rev,> 79.4 µM (not active)
C=CCc1ccccc1OCC(O)CN1CCN(c2ccc(C)cc2)CC1 (stereo not drawn),EC50,HEK293,1.78 µM (active)
same,EC50,[14],8.5 µM (active)
same,EC50,[15],14.8 µM (not active)
Cc1ccc(-n2c(=O)c(C#N)cc3c(=O)n4ccccc4nc32)cc1,EC50,[16],> 50 µM (not active)
CCN(CC)CCCNc1ccc(-c2nnc(-c3ccc(OCC(C)C)cc3)o2)cn1,EC50,[17],> 30 µM (not active)
same,IC50,[18],> 20 µM (inactive)
same,IC50,[19],1.96 µM (active)
same,EC50,[20],< 100 nM (active)
same,EC50,cells,394 nM (active)
same,EC50,[21],> 120 µM (not active)
same,EC50,[22],4.75 µM (active)
same,EC50,[23],13.5 µM (active)
Clc1ccc2scc(CN3CCCC3)c2c1,AC50,[24],2.66 µM (active)
Cc1cccc(N2CCN(C(=O)CN3C(=O)NC4(CCCCCC4)C3=O)CC2)c1C,AC50,[25],47.4 µM (active)
